ChEMBL document CHEMBL3045726, “Fungicidal Activity of Pyrazolylpyrimidines” (1990)
Values after ≈ are worked out from the molar mass of the structure shown.

Assays:
Type in all cases: functional
[1] = system: Nakataea oryzae; assay: Fungicidal activity against Magnaporthe salvinii by agar dilution method
[2] = system: Pyricularia oryzae; assay: Fungicidal activity against Magnaporthe oryzae by agar dilution method
[3] = system: Pyricularia oryzae; assay: Fungicidal activity against Magnaporthe oryzae in rice seedlings assessed as control of rice blast at 500 ppm by curative foliar treatment
[4] = system: Pyricularia oryzae; assay: Fungicidal activity against Magnaporthe oryzae in rice seedlings assessed as control of rice blast at 500 ppm by preventive foliar treatment

SMILES	MIC [1]	MIC [2]	Activity [3]	Activity [4]
CCNc1nc(NCC)nc(-n2nc(C)cc2C)n1	25 µg/mL (≈ 95.7 µM)	50 µg/mL (≈ 191 µM)	81%	100%
Cc1cc(C)n(C2=NS(=O)(=O)c3ccccc32)n1	> 100 µg/mL	> 100 µg/mL	0%	31%
Cc1cc(C)n(-c2nc3ccccc3s2)n1	> 100 µg/mL	> 100 µg/mL	31%	40%
Cc1cc(C)n(-c2nc3ccccc3c(=O)[nH]2)n1		0.78 µg/mL (≈ 3.25 µM)	85%	40%
Cc1cc(C)n(-c2ccc(O)nn2)n1	> 100 µg/mL	100 µg/mL (≈ 526 µM)	0%	29%
Cc1cc(C)n(-c2ccc(Cl)nn2)n1	> 100 µg/mL	> 100 µg/mL	31%	31%
Cc1cc(C)n(-c2ncncn2)n1	> 100 µg/mL	> 100 µg/mL	50%	59%
Cc1cc(C)n(-c2nc(O)nc(O)n2)n1	> 100 µg/mL	> 100 µg/mL	31%	
Cc1cc(C)n(-c2nc(Cl)nc(Cl)n2)n1	> 100 µg/mL	> 100 µg/mL	100%	100%
Cc1cc(C)n(-c2nc3ccccc3[nH]2)n1	25 µg/mL (≈ 118 µM)	100 µg/mL (≈ 471 µM)	0%	
Cc1cc(C)n(-c2nc(C)c(C)s2)n1	> 100 µg/mL	> 100 µg/mL	15%	0%
Cc1nc(-n2nc(C)c(Br)c2C)nc(O)c1Br	25 µg/mL (≈ 69.1 µM)	50 µg/mL (≈ 138 µM)	31%	40%
Cc1cc(C)nc(-n2ccnc2)n1	> 100 µg/mL	> 100 µg/mL	0%	51%
Cc1cc(C)nc(-n2ccnc2C)n1	> 100 µg/mL	> 100 µg/mL	40%	59%
Cc1cc(C)nc(-n2cc(C)nc2C)n1	> 100 µg/mL	> 100 µg/mL	0%	59%
Cc1cc(C)nc(-n2cncn2)n1	> 100 µg/mL	> 100 µg/mL	0%	31%
Cc1cc(C)nc(-n2nc(C)nc2C)n1	> 100 µg/mL	> 100 µg/mL	0%	81%
Cc1cc(C)n(-c2ccc3ccccc3n2)n1	25 µg/mL (≈ 112 µM)	100 µg/mL (≈ 448 µM)	60%	31%
Cc1cc(C)n(-c2cc(C)c3ccccc3n2)n1	> 100 µg/mL	> 100 µg/mL	69%	81%
Cc1cc(C)nc(-n2nc(C(F)(F)F)cc2C(F)(F)F)n1	> 100 µg/mL	> 100 µg/mL	31%	51%
Cc1cc(C)nc(-n2nc(C(F)(F)F)cc2-c2ccccc2)n1	> 100 µg/mL	100 µg/mL (≈ 314 µM)	53%	74%
CCOC(=O)c1cc(C)nn1-c1nc(C)cc(C)n1	> 100 µg/mL	> 100 µg/mL	0%	0%
CCOC(=O)c1c(C)nn(-c2nc(C)cc(C)n2)c1C	> 100 µg/mL	> 100 µg/mL	85%	69%
CC(=O)c1c(C)nn(-c2nc(C)cc(C)n2)c1C	> 100 µg/mL	> 100 µg/mL	84%	40%
Cc1cc(C)nc(-n2nc(C)c(Cl)c2C)n1	50 µg/mL (≈ 211 µM)	50 µg/mL (≈ 211 µM)	99%	29%

SMILES	MIC [1]	MIC [2]	Activity [3]	Activity [4]
Cc1cc(C)nc(-n2nc(C)c(Br)c2C)n1	50 µg/mL (≈ 178 µM)	50 µg/mL (≈ 178 µM)	96%	65%
Cc1cc(C)n(-c2nc(C)c(Cl)c(C)n2)n1	25 µg/mL (≈ 106 µM)	50 µg/mL (≈ 211 µM)	100%	94%
Cc1cc(C)nc(-n2ccc(C)n2)n1	> 100 µg/mL	> 100 µg/mL	69%	69%
Cc1cc(C)nc(-n2cccn2)n1	> 100 µg/mL	> 100 µg/mL	40%	41%
COc1cc(C)nn1-c1nc(C)cc(C)n1	> 100 µg/mL	> 100 µg/mL	40%	40%
COc1cc(C)nc(-n2nc(C)cc2C)n1	100 µg/mL (≈ 458 µM)	50 µg/mL (≈ 229 µM)	96%	81%
Cc1cc(C)nc(-n2nc(C)cc2C)n1	100 µg/mL (≈ 494 µM)	> 100 µg/mL	100%	99%
Cc1ccnc(-n2nc(C)cc2C)n1	> 100 µg/mL	> 100 µg/mL	96%	78%
Cc1cc(C)n(-c2ncccn2)n1	> 100 µg/mL	> 100 µg/mL	73%	78%
Cc1cc(C)n(-c2nc(C)c3ccccc3n2)n1	6.25 µg/mL (≈ 26.2 µM)	25 µg/mL (≈ 105 µM)	98%	71%
Cc1cc(C)n(-c2ncc3ccccc3n2)n1	25 µg/mL (≈ 111 µM)	25 µg/mL (≈ 111 µM)	99%	84%
CCc1cc(C)n(-c2nc(C)cc(C)n2)n1	50 µg/mL (≈ 231 µM)	50 µg/mL (≈ 231 µM)	100%	31%
CCc1cc(C)n(-c2nccc(C)n2)n1	50 µg/mL (≈ 247 µM)	25 µg/mL (≈ 124 µM)	98%	84%
CCc1cc(C)n(-c2ncccn2)n1	> 100 µg/mL	> 100 µg/mL	93%	74%
CCc1cc(CC)n(-c2nc(C)cc(C)n2)n1	25 µg/mL (≈ 109 µM)	25 µg/mL (≈ 109 µM)	100%	40%
CCc1cc(CC)n(-c2nccc(C)n2)n1	25 µg/mL (≈ 116 µM)	25 µg/mL (≈ 116 µM)	100%	59%
CCc1cc(CC)n(-c2ncccn2)n1	> 100 µg/mL	100 µg/mL (≈ 494 µM)	100%	90%
CCCc1cc(CCC)n(-c2nc(C)cc(C)n2)n1	6.25 µg/mL (≈ 24.2 µM)	12.5 µg/mL (≈ 48.4 µM)	100%	40%
Cc1cc(C)nc(-n2nc(C(C)C)cc2C(C)C)n1	6.25 µg/mL (≈ 24.2 µM)	6.25 µg/mL (≈ 24.2 µM)	100%	31%
Cc1cc(C)nc(-n2nc(C(C)(C)C)cc2C(C)(C)C)n1	> 100 µg/mL	> 100 µg/mL	89%	69%
Cc1cc(C)nc(-n2nc(C)cc2-c2ccccc2)n1		100 µg/mL (≈ 378 µM)	27%	67%
Cc1cc(C)nc(-n2nc(-c3ccccc3)cc2-c2ccccc2)n1	> 100 µg/mL	> 100 µg/mL	40%	31%
Cc1cc(C)nc(-n2nc(C)cc2C(F)(F)F)n1	> 100 µg/mL	> 100 µg/mL	0%	53%
Cc1cc(C)nc(-n2[nH]c(C)cc2=O)n1	> 100 µg/mL	> 100 µg/mL	0%	31%
COc1cc(C)nc(-n2nc(C)cc2OC)n1 [EPIRIZOLE]	> 100 µg/mL	> 100 µg/mL	89%	
